In patent US9957264B2 (Merck Sharp & Dohme Corp., priority 2013, dated 2018):

Experiments:
[1] = target: JAK1 (recombinant purified GST-tagged catalytic domain) (Homo sapiens (Human), UniProt P23458); test: Jak Biochemical HTRF Assay (JAK1); details: [ATP] 31.8 μM
Procedure, shortened: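 Read-out is the 665/615 nm time-resolved FRET ratio from Eu-pY20 antibody and streptavidin-Dylight 650 bound to phosphorylated biotin-peptide. Reactions ran 120 min at room temperature after ATP start. Inhibition normalized to untreated controls gave IC50 via 4-parameter fit.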

[2] = target: JAK2 (recombinant purified GST-tagged catalytic domain) (Homo sapiens (Human), UniProt O60674); test: Jak Biochemical HTRF Assay (JAK2); details: [ATP] 8.5 μM
Protocol: Jak Biochemical HTRF Assay Protocol
The ability of compounds to inhibit the activity of JAK1, JAK2, JAK3, and Tyk2 was measured using a recombinant purified GST-tagged catalytic domain for each enzyme (Invitrogen JAK1 #M4290, JAK2 #M4290, JAK3 #M4290, Tyk2 #M4290) in an HTRF format biochemical assay. […] The basic assay protocol is as follows: First, 250 nL of diluted compounds in DMSO were dispensed into the wells of a dry 384-well Black plate (Greiner #781076) using a Labcyte Echo 555 acoustic dispenser. Subsequent reagent additions employed an Agilent Bravo. […] After equilibration, 2 μL of 10×ATP in 1× assay buffer was added to initiate the kinase reaction and the plates were shaken and then incubated at room temperature for 120 minutes. […] Plates were shaken and centrifuged and then incubated 60 minutes at room temperature and then read on a Perkin Elmer Envision (λex=337 nm, λem=665 and 615 nm, TRF delay time=20 μs). HTRF signal=10,000*665 nm reading/615 nm reading. After normalization to untreated controls, the percent inhibition of the HTRF signal at each compound concentration was calculated. The plot of percent inhibition versus the log of compound concentration was fit with a 4-parameter dose response equation to calculate IC50 values.
Final reaction conditions were:
Examples of the instant invention were evaluated in JAK1 and JAK2 in vitro binding assays as described above.

Chain of JAK2 (recombinant purified GST-tagged catalytic domain) (O60674 849-1124): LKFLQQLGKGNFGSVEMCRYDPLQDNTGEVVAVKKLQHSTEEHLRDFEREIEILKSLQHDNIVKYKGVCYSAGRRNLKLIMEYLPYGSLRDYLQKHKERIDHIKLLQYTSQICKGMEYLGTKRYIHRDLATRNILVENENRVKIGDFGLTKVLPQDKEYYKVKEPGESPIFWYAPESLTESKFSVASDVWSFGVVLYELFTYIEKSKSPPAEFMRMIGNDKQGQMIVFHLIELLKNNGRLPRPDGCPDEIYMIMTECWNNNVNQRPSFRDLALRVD
Chain of JAK1 (recombinant purified GST-tagged catalytic domain) (P23458 875-1153): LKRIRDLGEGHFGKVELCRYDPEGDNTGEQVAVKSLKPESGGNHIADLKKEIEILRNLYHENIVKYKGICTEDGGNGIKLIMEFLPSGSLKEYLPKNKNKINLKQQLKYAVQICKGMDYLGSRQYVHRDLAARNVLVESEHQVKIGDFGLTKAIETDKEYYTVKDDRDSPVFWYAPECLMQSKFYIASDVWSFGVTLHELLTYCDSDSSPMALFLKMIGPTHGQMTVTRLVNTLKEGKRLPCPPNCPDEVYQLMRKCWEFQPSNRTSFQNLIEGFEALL

Row | SMILES | IC50 [1] [nM] | IC50 [2] [nM]
1 | COC(=O)N1CCC(CC#N)(n2nc(Nc3ccc(C(C)(O)C(F)(F)F)cc3)c3c(=O)[nH]ccc32)CC1 (single isomer, unassigned) [Example 5-142, (R or S)-methyl 4-(cyanomethyl)-4-(4-oxo-3-((4-(1,1,1-trifluoro-2-hydroxypropan-2-yl)phenyl)amino)-4,5-dihydro-1H-pyrazolo[4,3-c]pyridin-1-yl)piperidine-1-carboxylate] | 0.13 | 0.33
2 | COC(=O)N1CCC(CC#N)(n2nc(Nc3ccc4c(c3)CCC4(O)C(F)(F)F)c3c(=O)[nH]ccc32)CC1 (single isomer, unassigned) [Example 5-143, (R or S)-methyl 4-(cyanomethyl)-4-(3-((1-hydroxy-1-(trifluoromethyl)-2,3-dihydro-1H-inden-5-yl)amino)-4-oxo-4,5-dihydro-1H-pyrazolo[4,3-c]pyridin-1-yl)piperidin-1-carboxylate] | 0.18 | 0.66
3 | COC(=O)N1CCC(CC#N)(n2nc(Nc3ccc4c(c3)CCC4(O)C(F)(F)F)c3c(=O)[nH]ccc32)CC1 (single isomer, unassigned) [Example 5-144, (R or S)-methyl 4-(cyanomethyl)-4-(3-((1-hydroxy-1-(trifluoro-methyl)-2,3-dihydro-1H-inden-5-yl)amino)-4-oxo-4,5-dihydro-1H-pyrazolo[4,3-c]pyridin-1-yl)piperidine-1-carboxylate] | 0.1 | 0.21
4 | Cc1cc(Nc2nn([C@]3(CC#N)CC[C@@H](C(=O)OC(C)(C)C)OC3)c3cc[nH]c(=O)c23)ccc1C(=O)N1CCSC1C (single isomer, unassigned) [Example 5-156, (2S,5S)-tert-butyl 5-(cyanomethyl)-5-(3-((3-methyl-4-((S or R)-2-methylthiazolidine-3-carbonyl)phenyl)amino)-4-oxo-4,5-dihydro-1H-pyrazolo[4,3-c]pyridin-1-yl)tetrahydro-2H-pyran-2-carboxylate] | 0.17 | 0.3
5 | Cc1cc(Nc2nn([C@]3(CC#N)CC[C@@H](C(=O)OC(C)(C)C)OC3)c3cc[nH]c(=O)c23)ccc1C(=O)N1CCSC1C (single isomer, unassigned) [Example 5-157, (2S,5S)-tert-butyl 5-(cyanomethyl)-5-(3-((3-methyl-4-((S or R)-2-methylthiazolidine-3-carbonyl)phenyl)amino)-4-oxo-4,5-dihydro-1H-pyrazolo[4,3-c]pyridin-1-yl)tetrahydro-2H-pyran-2-carboxylate] | 0.19 | 0.27
6 | CC(C)OC(=O)C(C)(C)C(O)(c1ccc(Nc2nn([C@]3(CC#N)CC[C@@H](C(=O)OC(C)(C)C)OC3)c3cc[nH]c(=O)c23)cc1)C(F)(F)F (single isomer, unassigned) [Example 5-162, (2S,5S)-tert-butyl 5-(cyanomethyl)-5-(4-oxo-3-((4-((S or R)-1,1,1-trifluoro-2-hydroxy-4-isopropoxy-3,3-dimethyl-4-oxobutan-2-yl)phenyl)amino)-4,5-dihydro-1H-pyrazolo[4,3-c]pyridin-1-yl)tetrahydro-2H-pyran-2-carboxylate] | 2.76 | 12.9
7 | CC(C)OC(=O)C(C)(C)C(O)(c1ccc(Nc2nn([C@]3(CC#N)CC[C@@H](C(=O)OC(C)(C)C)OC3)c3cc[nH]c(=O)c23)cc1)C(F)(F)F (single isomer, unassigned) [Example 5-163, (2S,5S)-tert-butyl 5-(cyanomethyl)-5-(4-oxo-3-((4-((S or R)-1,1,1-trifluoro-2-hydroxy-4-isopropoxy-3,3-dimethyl-4-oxobutan-2-yl)phenyl)amino)-4,5-dihydro-1H-pyrazolo[4,3-c]pyridin-1-yl)tetrahydro-2H-pyran-2-carboxylate] | 1.96 | 2.21
8 | CC(C)(C)OC(=O)[C@@H]1CC[C@@](CC#N)(n2nc(Nc3ccc4c(c3)CC(C)(C)C4(O)C(F)(F)F)c3c(=O)[nH]ccc32)CO1 (single isomer, unassigned) [Example 5-164, (2S,5S)-tert-butyl 5-(cyanomethyl)-5-(3-(((S or R)-1-hydroxy-2,2-dimethyl-1-(trifluoromethyl)-2,3-dihydro-1H-inden-5-yl)amino)-4-oxo-4,5-dihydro-1H-pyrazolo[4,3-c]pyridin-1-yl)tetrahydro-2H-pyran-2-carboxylate] | 0.59 | 0.68
9 | CC(C)(C)OC(=O)[C@@H]1CC[C@@](CC#N)(n2nc(Nc3ccc4c(c3)CC(C)(C)C4(O)C(F)(F)F)c3c(=O)[nH]ccc32)CO1 (single isomer, unassigned) [Example 5-165, (2S,5S)-tert-butyl 5-(cyanomethyl)-5-(3-(((S or R)-1-hydroxy-2,2-dimethyl-1-(trifluoromethyl)-2,3-dihydro-1H-inden-5-yl)amino)-4-oxo-4,5-dihydro-1H-pyrazolo[4,3-c]pyridin-1-yl)tetrahydro-2H-pyran-2-carboxylate] | 0.46 | 1
10 | CC(C)(C)OC(=O)[C@@H]1CC[C@@](CC#N)(n2nc(Nc3ccc(C(O)C(F)(F)F)cc3)c3c(=O)[nH]ccc32)CO1 (single isomer, unassigned) [Example 5-168, (2S,5S)-tert-butyl 5-(cyanomethyl)-5-(4-oxo-3-((4-((S or R)-2,2,2-trifluoro-1-hydroxyethyl)phenyl)amino)-4,5-dihydro-1H-pyrazolo [4,3-c]pyridin-1-yl)tetrahydro-2H-pyran-2-carboxylate] | 0.12 | 0.51
11 | CC(C)(C)OC(=O)[C@@H]1CC[C@@](CC#N)(n2nc(Nc3ccc(C(O)C(F)(F)F)cc3)c3c(=O)[nH]ccc32)CO1 (single isomer, unassigned) [Example 5-169, (2S,5S)-tert-butyl 5-(cyanomethyl)-5-(4-oxo-3-((4-((S or R)-2,2,2-trifluoro-1-hydroxyethyl)phenyl)amino)-4,5-dihydro-1H-pyrazolo [4,3-c]pyridin-1-yl)tetrahydro-2H-pyran-2-carboxylate] | 0.1 | 0.41
12 | CC(C)(C)OC(=O)[C@@H]1CC[C@@](CC#N)(n2nc(Nc3ccc(C(C)(O)C(F)(F)F)cc3)c3c(=O)[nH]ccc32)CO1 (single isomer, unassigned) [Example 5-170, (2S,5S)-tert-butyl 5-(cyanomethyl)-5-(4-oxo-3-((4-((S or R)-1,1,1-trifluoro-2-hydroxypropan-2-yl)phenyl)amino)-4,5-dihydro-1H-pyrazolo[4,3-c]pyridin-1-yl)tetrahydro-2H-pyran-2-carboxylate] | 0.14 | 0.48
13 | CC(C)(C)OC(=O)[C@@H]1CC[C@@](CC#N)(n2nc(Nc3ccc(C(C)(O)C(F)(F)F)cc3)c3c(=O)[nH]ccc32)CO1 (single isomer, unassigned) [Example 5-171, (2S,5S)-tert-butyl 5-(cyanomethyl)-5-(4-oxo-3-((4-((S or R)-1,1,1-trifluoro-2-hydroxypropan-2-yl)phenyl)amino)-4,5-dihydro-1H-pyrazolo[4,3-c]pyridin-1-yl)tetrahydro-2H-pyran-2-carboxylate] | 0.07 | 0.18
14 | COC(C)(c1ccc(Nc2nn([C@]3(CC#N)CC[C@@H](C(=O)OC(C)(C)C)OC3)c3cc[nH]c(=O)c23)cc1)C(F)(F)F (single isomer, unassigned) [Example 5-172, (2S,5S)-tert-butyl 5-(cyanomethyl)-5-(4-oxo-3-((4-((S or R)-1,1,1-trifluoro-2-methoxypropan-2-yl)phenyl)amino)-4,5-dihydro-1H-pyrazolo[4,3-c]pyridin-1-yl)tetrahydro-2H-pyran-2-carboxylate] | 0.75 | 1.14
15 | CCNC(c1ccc(Nc2nn([C@@]3(CC#N)CCCC[C@H]3F)c3cc[nH]c(=O)c23)cc1)C(F)(F)F (single isomer, unassigned) [Example 5-173, {(1R,2R)-1-[3-({4-[(1R or 1S)-1-(ethylamino)-2,2,2-trifluoroethyl]phenyl}amino)-4-oxo-4,5-dihydro-1H-pyrazolo [4,3-c]pyridin-1-yl]-2-fluorocyclohexyl} acetonitrile] | 0.07 | 0.07
16 | CCNC(c1ccc(Nc2nn([C@@]3(CC#N)CCCC[C@H]3F)c3cc[nH]c(=O)c23)cc1)C(F)(F)F (single isomer, unassigned) [Example 5-174, {(1R,2R)-1-[3-({4-[(1R or 1S)-1-(ethylamino)-2,2,2-trifluoroethyl]phenyl}amino)-4-oxo-4,5-dihydro-1H-pyrazolo [4,3-c]pyridin-1-yl]-2-fluorocyclohexyl} acetonitrile] | 0.06 | 0.06
17 | N#CC[C@]1(n2nc(Nc3ccc(C(N)C(F)(F)F)cc3)c3c(=O)[nH]ccc32)CCCC[C@H]1F (single isomer, unassigned) [Example 5-176, {(1R,2R)-1-[3-({4-[(1R or 1S)-1-amino-2,2,2-trifluoroethyl]phenyl}amino)-4-oxo-4,5-dihydro-1H-pyrazolo [4,3-c]pyridin-1-yl]-2-fluorocyclohexyl} acetonitrile] | 0.05 | 0.09
